In article PMC11762413 (2025):
Values belong to the compound of their own block, whether it stands above or below them.

Legend:
[1] = system: VAN-specific aptamer (Apt), 4trunc, in solution (DNA, aptamer) CGAGGGTACCGCAATAGTACTTATTGTTCGCCTATTGTGGGTCGG; experiment: ITC; details: 100 mM Na+, 100 mM K+, 10 mM Mg2+; 10 mM TRIS pH 7.4, 25 °C; 10 µM aptamer titrated with 150 µM VAN; independent sites
[2] = system: VAN-specific aptamer (Apt), 4trunc, immobilised on gold (DNA, aptamer) CGAGGGTACCGCAATAGTACTTATTGTTCGCCTATTGTGGGTCGG; experiment: SPR kinetics (koff/kon); details: 100 mM Na+, 100 mM K+, 10 mM Mg2+; 10 mM TRIS pH 7.4; aptamer immobilised on gold chip; VAN 0.05–10 µM; 1:1 model
[3] = system: VAN-specific aptamer (Apt), 4trunc, immobilised on gold (DNA, aptamer) CGAGGGTACCGCAATAGTACTTATTGTTCGCCTATTGTGGGTCGG; experiment: EIS aptasensor selectivity; details: 100 mM Na+, 100 mM K+, 10 mM Mg2+, 10 mM TRIS pH 7.4, room temperature, 45 min, tested at 1 µM

- KD [1]: 13.35 ± 2.74 µM
- KD [2]: 18.31 ± 1.15 µM
SMILES: CN[C@H](CC(C)C)C(=O)N[C@H]1C(=O)N[C@@H](CC(N)=O)C(=O)N[C@H]2C(=O)N[C@H]3C(=O)N[C@H](C(=O)N[C@H](C(=O)O)c4cc(O)cc(O)c4-c4cc3ccc4O)[C@H](O)c3ccc(c(Cl)c3)Oc3cc2cc(c3O[C@@H]2O[C@H](CO)[C@@H](O)[C@H](O)[C@H]2O[C@H]2C[C@](C)(N)[C@H](O)[C@H](C)O2)Oc2ccc(cc2Cl)[C@H]1O

- binding ([3]; 10.65% of VAN signal): no
SMILES: OC[C@H]1OC(O)[C@H](O)[C@@H](O)[C@@H]1O (stereo partly shown)

- binding ([3]; 9.78% of VAN signal): no
SMILES: OC[C@H]1O[C@@H](O[C@H]2[C@H](O)[C@@H](O)C(O)O[C@@H]2CO)[C@H](O)[C@@H](O)[C@H]1O (stereo partly shown)
